“And” between values parts separate entries of the source, which are not always exact repeats. Equal values may be shown once.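 Cultured in 96-well plates, cells were exposed to test compound for 48 hours across five concentrations. At the GI50, growth is halved.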 The source made the active and inactive calls. No stated cut-off is given here; in the data, active = GI50 up to about 1.1 µM and inactive = higher.
Legend:
Assay in all cases: NCI tumour cell line growth inhibition, 48 h
SK-MEL-28 = tested on: SK-MEL-28
COLO 205 = tested on: COLO 205
OVCAR-3 = tested on: OVCAR-3
SR = tested on: SR
CCRF-CEM = tested on: CCRF-CEM
MOLT-4 = tested on: MOLT-4
RXF 393 = tested on: RXF 393
Malme-3M = tested on: Malme-3M
ACHN = tested on: ACHN
SF-539 = tested on: SF-539
SNB-19 = tested on: SNB-19
HL-60 = tested on: HL-60
SNB-75 = tested on: SNB-75
KM12 = tested on: KM12
SNB-78 = tested on: SNB-78
M14 = tested on: M14
SK-MEL-5 = tested on: SK-MEL-5
TK-10 = tested on: TK-10
UACC-257 = tested on: UACC-257
RPMI-8226 = tested on: RPMI-8226
786-0 = tested on: 786-0
CAKI-1 = tested on: CAKI-1
SN12C = tested on: SN12C
UO-31 = tested on: UO-31
IGROV-1 = tested on: IGROV-1
UACC-62 = tested on: UACC-62
OVCAR-8 = tested on: OVCAR-8
SK-OV-3 = tested on: SK-OV-3
KM-20L2 = tested on: KM-20L2
DMS-114 = tested on: DMS-114
A549 = tested on: A549
NCI-H23 = tested on: NCI-H23
SF-295 = tested on: SF-295
HCT-116 = tested on: HCT-116
EKVX = tested on: EKVX
NCI-H226 = tested on: NCI-H226
U-251 = tested on: U-251
RXF 631 = tested on: RXF 631
M19-MEL = tested on: M19-MEL
OVCAR-4 = tested on: OVCAR-4
HCT-15 = tested on: HCT-15
HOP-62 = tested on: HOP-62
DLD-1 = tested on: DLD-1
K562 = tested on: K562
SK-MEL-2 = tested on: SK-MEL-2
XF498 = tested on: XF498
HT-29 = tested on: HT-29
OVCAR-5 = tested on: OVCAR-5
A498 = tested on: A498
SF-268 = tested on: SF-268
NCI-H460 = tested on: NCI-H460
LOX IMVI = tested on: LOX IMVI
DMS-273 = tested on: DMS-273
SW-620 = tested on: SW-620
NCI-H522 = tested on: NCI-H522
LXFL 529 = tested on: LXFL 529
HOP-18 = tested on: HOP-18
HCC 2998 = tested on: HCC 2998
HOP-92 = tested on: HOP-92
MDA-MB-231 = tested on: MDA-MB-231
MDA-MB-435 = tested on: MDA-MB-435
MDA-N = tested on: MDA-N
PC-3 = tested on: PC-3
Hs-578T = tested on: Hs-578T
BT-549 = tested on: BT-549
MCF7 = tested on: MCF7
DU-145 = tested on: DU-145
NCI/ADR-RES = tested on: NCI/ADR-RES
T47D = tested on: T47D

Measured: GI50

CCC1CCCCN1CC(C(C)=O)C(c1ccccc1)c1c(O)c2ccccc2oc1=O (stereo not drawn)
inactive: SK-MEL-28 > 100 µM | COLO 205 76.6 µM | OVCAR-3 > 100 µM | SR 80.7 µM | CCRF-CEM > 100 µM | MOLT-4 > 100 µM | RXF 393 > 100 µM | Malme-3M > 100 µM | ACHN > 100 µM | SF-539 > 100 µM | SNB-19 > 100 µM | HL-60 76.4 µM | SNB-75 6.87 µM | KM12 > 100 µM | SNB-78 > 100 µM | M14 > 100 µM | SK-MEL-5 > 100 µM | TK-10 > 100 µM | UACC-257 > 100 µM | RPMI-8226 69.5 µM | 786-0 > 100 µM | CAKI-1 > 100 µM | SN12C > 100 µM | UO-31 > 100 µM | IGROV-1 > 100 µM | UACC-62 82.2 µM | OVCAR-8 > 100 µM | SK-OV-3 > 100 µM | KM-20L2 > 100 µM | DMS-114 > 100 µM | A549 > 100 µM | NCI-H23 > 100 µM | SF-295 > 100 µM | HCT-116 > 100 µM | EKVX > 100 µM | NCI-H226 18 µM | U-251 > 100 µM | RXF 631 > 100 µM | M19-MEL > 100 µM | OVCAR-4 > 100 µM | HOP-62 > 100 µM | DLD-1 > 100 µM | K562 > 100 µM | SK-MEL-2 > 100 µM | XF498 > 100 µM | HT-29 > 100 µM | OVCAR-5 50.7 µM | A498 > 100 µM | SF-268 > 100 µM | NCI-H460 > 100 µM | LOX IMVI > 100 µM | DMS-273 > 100 µM | SW-620 > 100 µM | NCI-H522 > 100 µM
> 100 µM: HCT-15

O=C(/C=C/c1ccc(Br)cc1)c1ccc(NCc2nc3ccccc3[nH]2)cc1
inactive: LXFL 529 4.24 µM | SK-MEL-28 18.6 µM | COLO 205 2.53 µM | OVCAR-3 4.61 µM | SR 5.69 µM | CCRF-CEM 4.76 µM | MOLT-4 3.31 µM | RXF 393 4.35 µM | Malme-3M 25 µM | ACHN 17.5 µM | SF-539 10 µM | SNB-19 8.79 µM | HOP-18 > 46.2 µM | HL-60 5.86 µM | SNB-75 4.34 µM | KM12 2.67 µM | SNB-78 2.98 µM | M14 17.9 µM | SK-MEL-5 4.4 µM | TK-10 11.1 µM | UACC-257 3.81 µM | RPMI-8226 1.93 µM | 786-0 5.25 µM | CAKI-1 9.68 µM | SN12C 9.93 µM | UO-31 7.73 µM | IGROV-1 17.3 µM | UACC-62 7.1 µM | OVCAR-8 3.37 µM | SK-OV-3 28.4 µM | KM-20L2 4.83 µM | HCC 2998 6.56 µM | DMS-114 2.99 µM | A549 5.77 µM | NCI-H23 4.95 µM | SF-295 4.61 µM | HCT-116 4.66 µM | EKVX > 30.2 µM | NCI-H226 10.9 µM | U-251 3.83 µM | M19-MEL 6.56 µM | OVCAR-4 14.4 µM | HOP-62 22.2 µM | DLD-1 4.83 µM | K562 3.35 µM | SK-MEL-2 17.6 µM | XF498 5.89 µM | HT-29 4.65 µM | OVCAR-5 > 59.8 µM | A498 19.1 µM | SF-268 8.18 µM | NCI-H460 8.22 µM | LOX IMVI 2.11 µM | DMS-273 5.7 µM | SW-620 2.96 µM | NCI-H522 3.41 µM | HOP-92 4 µM
3.95 µM: HCT-15

CC(C)(O)/C=C/C(=O)[C@](C)(O)[C@H]1[C@H](O)C[C@@]2(C)[C@@H]3CC=C4[C@@H](C=C(O)C(=O)C4(C)C)[C@]3(C)C(=O)C[C@]12C [CUCURBITACIN I]
active: LXFL 529 339 nM and 513 nM | MDA-MB-231 0.0223 µM | OVCAR-3 395 nM and 783 nM | SR 644 nM and 410 nM | RXF 393 225 nM and 440 nM | MDA-MB-435 < 0.01 µM | Malme-3M 536 nM and 329 nM | MDA-N < 0.01 µM | PC-3 0.0238 µM | Hs-578T 0.0485 µM | SNB-78 303 nM and 528 nM | M14 548 nM and 303 nM | UACC-257 324 nM and 555 nM | RPMI-8226 281 nM and 318 nM | BT-549 0.0147 µM | MCF7 0.0245 µM | UACC-62 805 nM and 607 nM | KM-20L2 482 nM and 318 nM | A549 493 nM and 271 nM | HCT-116 631 nM and 363 nM | RXF 631 372 nM and 536 nM | DU-145 < 0.01 µM | NCI/ADR-RES 0.126 µM | K562 841 nM and 504 nM | SK-MEL-2 442 nM and 237 nM | XF498 284 nM and 330 nM | HT-29 538 nM and 321 nM | SF-268 475 nM and 251 nM | NCI-H460 288 nM and 543 nM | LOX IMVI 430 nM and 238 nM | T47D 0.104 µM | DMS-273 243 nM and 218 nM | SW-620 334 nM and 541 nM
1.21 µM (inactive) and 698 nM (active): DMS-114
975 nM (active) and 1.27 µM (inactive): EKVX
inactive: MOLT-4 1.88 µM and 1.61 µM | KM12 1.9 µM and 1.12 µM | OVCAR-8 1.3 µM and 2.13 µM | NCI-H23 2.38 µM and 1.33 µM | OVCAR-5 3.03 µM and 3.24 µM

C=C(C)C1CC2=C(O1)C(=O)c1ccccc1C2=O (stereo not drawn) [DEHYDROISO-ALPHA-LAPACHONE]
inactive: LXFL 529 17.2 µM | SK-MEL-28 19 µM | COLO 205 19.3 µM | OVCAR-3 18.9 µM | CCRF-CEM 16.3 µM | MOLT-4 10.6 µM | RXF 393 18.9 µM | SF-539 18.5 µM | SNB-19 29.8 µM | HL-60 3.38 µM | SNB-75 17.6 µM | KM12 18.3 µM | SNB-78 20.3 µM | M14 18.5 µM | SK-MEL-5 14 µM | TK-10 23 µM | UACC-257 13.3 µM | RPMI-8226 15.1 µM | CAKI-1 17.6 µM | SN12C 19.1 µM | IGROV-1 20 µM | UACC-62 16.1 µM | OVCAR-8 17.3 µM | SK-OV-3 > 100 µM | HCC 2998 19.1 µM | DMS-114 16 µM | A549 21 µM | NCI-H23 18.9 µM | EKVX 25.7 µM | NCI-H226 > 10 µM | U-251 16.5 µM | RXF 631 20.3 µM | OVCAR-4 11.3 µM | HOP-62 19.6 µM | DLD-1 20.8 µM | K562 18.6 µM | XF498 17.9 µM | HT-29 20.9 µM | NCI-H460 17.7 µM | LOX IMVI 9.18 µM | DMS-273 17.4 µM | SW-620 23.6 µM | NCI-H522 20.7 µM | HOP-92 16.3 µM
17.9 µM: HCT-15

From ChEMBL document CHEMBL1201862, “PubChem BioAssay data set” (2004)
